Measured values: US11180462B2, “Microbiocidal oxadiazole derivatives” (SYNGENTA PARTICIPATIONS AG, priority 2015, dated 2021)

Experiments:
[1] = tested on: Puccinia recondita f. Sp. Tritici; assay: Fungicidal activity against Puccinia recondita f. sp. tritici / wheat / leaf disc preventative (brown rust); assay type: in vivo; conditions: foliar, 200 ppm in the applied formulation, wheat leaf segments, preventative, compared to untreated control leaf disks, read-out: disease control
In short: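 Percent disease control relative to untreated check segments is scored once disease develops, 7 to 9 days after application. Wheat cv. Kanzler segments receive compound spray (200 ppm in formulation) one day before spore inoculation, then sit at 19° C. and 75% rh under 12 h light/12 h dark.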

Phakopsora Pachyrhizi = assay: Fungicidal activity against Phakopsora pachyrhizi / soybean / leaf disc preventative (Asian soybean rust); assay type: in vivo; conditions: foliar, 200 ppm in the applied formulation, soybean leaf disks, compared to untreated control leaf disks, read-out: disease control
In short: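 Scored 12 to 14 days post-application as percent control relative to untreated check discs, rust spores were sprayed under the disc one day after compound treatment. Incubation: 20°C, 75% rh, first 24–36 h in darkness, then 12 h daily light; discs kept on water agar.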

[2] = tested on: Glomerella lagenarium (Colletotrichum lagenarium); assay: Fungicidal activity against Glomerella lagenarium (Colletotrichum lagenarium) liquid culture / cucumber / preventative (anthracnose); assay type: cell-based; conditions: Colletotrichum orbiculare; 20 ppm in the applied formulation; liquid culture (PDB), growth inhibition measured photometrically after 3 to 4 days; compared to untreated control; read-out: disease control
In short: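 Percent activity against the untreated check was derived from photometric growth measurements made 2 to 7 days after conidia in potato dextrose broth were combined with compound at 20 ppm. Cultures were kept dark at 24 °C and 96% humidity.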

[3] = tested on: Puccinia recondita f. Sp. Tritici; assay: Fungicidal activity against Puccinia recondita f. sp. tritici / wheat / leaf disc curative (brown rust); assay type: in vivo; conditions: foliar, 24 h, 200 ppm in the applied formulation, wheat leaf segments, curative (applied 1 day after inoculation), compared to untreated control leaf disks, read-out: disease control
In short: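 Segments of wheat cv. Kanzler were laid on agar and inoculated with a spore suspension of the rust, then held in darkness at 19° C and 75% relative humidity. One day later the water-diluted formulated compound was applied, with incubation continued under a 12 h light/dark cycle.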

| melting point [°C] | Structure (SMILES) | pest or weed control at 200 ppm [1] [%] | pest or weed control at 200 ppm (Phakopsora Pachyrhizi) [%] | inhibition of growth at 20 ppm [2] [%] | pest or weed control at 200 ppm [3] [%] |
| --- | --- | --- | --- | --- | --- |
| 84 to 87 | CON(Cc1ccc(-c2noc(C(F)(F)F)n2)cc1)C(=O)NC1CC1 [Compound 3.14, 3-cyclopropyl-1-methoxy-1-[[4-[5-(trifluoromethyl)-1,2,4-oxadiazol-3-yl]phenyl]methyl]urea] | ≥ 80 | ≥ 80 | ≥ 80 | ≥ 80 |
| 141.2 to 143.5 | CCC(=O)N(O)Cc1ccc(-c2noc(C(F)(F)F)n2)cc1 [Compound 1.603, N-hydroxy-N-[[4-[5-(trifiuoromethyl)-1,2,4-oxadiazol-3-yl]phenyl]methyl]-propanamide] | ≥ 80 | ≥ 80 | ≥ 80 | ≥ 80 |
| 106 to 107 | CON(C)C(=O)N(C)C(C#N)c1ccc(-c2noc(C(F)(F)F)n2)cc1 (centres unmarked) [Compound 3.31, 1-[cyano-[4-[5-(trifluoromethyl)-1,2,4-oxadiazol-3-yl]phenyl]methyl]-3-methoxy-1,3-dimethyl-urea] | ≥ 80 | ≥ 80 | ≥ 80 | ≥ 80 |
| 95 to 98 | CNC(=O)N(C)Cc1ccc(-c2noc(C(F)(F)F)n2)cc1 [Compound 3.37, 1,3-dimethyl-1-[[4-[5-(trifluoromethyl)-1,2,4-oxadiazol-3-yl]phenyl]methyl]urea] | ≥ 80 | ≥ 80 | ≥ 80 | ≥ 80 |
| 112.2 to 114.7 | CON(Cc1ccc(-c2noc(C(F)(F)F)n2)cc1)C(N)=O [Compound 3.32, 1-methoxy-1-[[4-[5-(trifluoromethyl)-1,2,4-oxadiazol-3-yl]phenyl]methyl]urea] | ≥ 80 | ≥ 80 | ≥ 80 | ≥ 80 |
| 96.3 to 100.5 | CON(C)C(=O)N(O)Cc1ccc(-c2noc(C(F)(F)F)n2)cc1 [Compound 3.29, 1-hydroxy-3-methoxy-3-methyl-1-[[4-[5-(trifluoromethyl)-1,2,4-oxadiazol-3-yl]phenyl]methyl]urea] | ≥ 80 | ≥ 80 | ≥ 80 | ≥ 80 |
| 92.6 to 94.3 | COCC(=O)N(Cc1ccc(-c2noc(C(F)(F)F)n2)cc1)CC(F)(F)F [Compound 1.583, 2-methoxy-N-(2,2,2-trifluoroethyl)-N-[[4-[5-(trifluoromethyl)-1,2,4-oxadiazol-3-yl]phenyl]methyl]-acetamide] | ≥ 80 | ≥ 80 | ≥ 80 | ≥ 80 |
